Experimental data as given in US11352396B2, “Antimicrobial peptides and methods of using same” (Zoetis Services LLC, priority 2017, dated 2022).

Assays:
cRBC = format: cell-based, canine
Method: SEQ ID NO: 1 was selected for further research. Toxicity of SEQ ID NO: 1 to eukaryotic blood cells was compared to that of tachyplesin (SEQ ID NO: 13). A standard, well referenced red blood cell hemolysis assay was employed against multiple species to test the lysis potential of the peptides. Red blood cells (RBCs) were prepared and isolated by several centrifuge and wash steps to remove the plasma fraction. A dose titration (50 μM to 0.05 μM) of test peptides and control peptide melittin were spotted from 50 mM stocks in a 384 well plate. Prepared RBCs were incubated with peptide for one hour at 37° C. Percent hemolysis was measured by optical density at 405 nm and utilizing 1% TritonX100 as hundred percent effect (HPE) and phosphate buffer alone as zero percent effect (ZPE).

[1] = test system: Canine-derived epithelial keratinocyte (CPEK) cells; format: cell-based
Method: Safety of the peptides listed in table 2 was determining by measuring cell viability. Canine-derived epithelial keratinocyte (CPEK) cells were propagated to determine cell viability in the presence of peptides. Cells were grown from a frozen stock in CnT-09-5 (with supplements) pre-warmed media in a T75 flask and incubated overnight at 37° C., 5% CO2. Cells were washed with phosphate buffer and replenished with pre-warmed CnT-05-9 media and repeated for several days until cells reached a density of 6.6×10^4 cells/mL. Cells were then transferred to a 384 well plate, allowed to settle and dosed with peptides and melittin control peptide (50 μM to 0.05 μM) and incubated overnight at 37° C., 5% CO2. 0.1% TritonX100 as (HPE) and phosphate buffer alone as (ZPE) were added to the plates to calculate percent effect once the assay was terminated with 10 μL CELLTITER-GLO® assay reagents for a luminescent readout.

S. aureus ATCC 29213 = format: cell-based; parameters: key to SA 29213: MIC in μM (lowest conc. with no visible growth); details: S. aureus 29213, Table 6
Method: (§1) Peptides according to SEQ ID NOs as listed in Table 1 were prepared by a commercial manufacturer (CS Bio, Menlo Park, Calif.) using solid phase synthesis. Antimicrobial activity was assessed by determining the Minimal Inhibitory Concentration (MIC) against S. aureus and E. coli. Briefly, Microbroth MICs were performed using CLSI methodology (VET01-S2). For S. aureus and E. coli ATCC strains, TSA with 5% lysed horse blood agar was used for overnight culturing at 37° C. ambient air. A 0.5 mM stock for each peptide was made with cell culture water, 0.01% acetic acid and serially diluted and spotted (10 μL) in a 96-well plate for in assay dose titration concentration of 50 μM to 0.05 μM. 0.5 McFarland Standard of each strain was diluted 1:250 in Mueller-Hinton Broth (MHB). 90 μL of culture suspension was then added upon drug in the 96-well plate for overnight incubation for 18-20 hours. The MIC was determined visually at the first well of no visible growth at the corresponding concentration.

[2] = test system: MSSP (Methicillin-Susceptible Staphylococcus pseudintermedius); experiment: MIC against selected strains of MSSP; format: cell-based; parameters: MIC MSSP 49051 / MIC MSSP 81923 / MIC MSSP 84250 / Effect on MSSP 86000 / Effect on MSSP 72036 / Effect on MSSP 78032: unit not given beside the values; Effect on MSSP 71990 / Effect on MSSP 86001 / Effect on MSSP 72191 / Effect on MSSP 76986 / Effect on MSSP 77378 / Effect on MSSP 81923 / Effect on MSSP 84250 / Effect on MSSP 84658: unit: µM; details: for SP 49051: S. pseudintermedius 49051, Table 6; for Effect on MSSP 71990: strain 71990, Table 5; for Effect on MSSP 72036: strain 72036, Table 5; for Effect on MSSP 72191: strain 72191, Table 5; for Effect on MSSP 76986: strain 76986, Table 5; for Effect on MSSP 77378: strain 77378, Table 5; for Effect on MSSP 78032: strain 78032, Table 5; for Effect on MSSP 81923: strain 81923, Table 5; for Effect on MSSP 84250: strain 84250, Table 5; for Effect on MSSP 84658: strain 84658, Table 5; for Effect on MSSP 86000: strain 86000, Table 5; for Effect on MSSP 86001: strain 86001, Table 5
Method: as §1
(§2) Antimicrobial activity of the peptides listed in Table 2 against different strains of MSSP (Methicillin-Susceptible Staphylococcus pseudintermedius) and MRSP (Methicillin-Resistant Staphylococcus pseudintermedius) was further assessed. The results are in Tables 3 and 4, respectively.

E. coli ATCC 25922 = format: cell-based; details: E. coli 25922, Table 6
Method: as §1

[3] = test system: MRSP (Methicillin-Resistant Staphylococcus pseudintermedius); experiment: MIC against selected strains of MRSP; format: cell-based; parameters: key to MIC MRSP 72192 / MIC MRSP 76923 / MR 71994 / Mr 88493 / MR 72035 / MR 72192 / MR 76923 / MR 79882 / MR 80279 / MR 81926 / MR 86002 / MR 87665: MIC in μM (visual, first well with no growth); details: for MR 71994: MRSP strain 71994, Table 6; for MR 72035: MRSP strain 72035, Table 6; for MR 72192: MRSP strain 72192, Table 6; for MR 76923: MRSP strain 76923, Table 6; for MR 79882: MRSP strain 79882, Table 6; for MR 80279: MRSP strain 80279, Table 6; for MR 81926: MRSP strain 81926, Table 6; for MR 86002: MRSP strain 86002, Table 6; for MR 87665: MRSP strain 87665, Table 6; for Mr 88493: MRSP strain 88493, Table 6
Method: as §1, §2

| Substance | cRBC (50 μM) (cRBC) | CPEK (50 μM) [1] | SA 29213 (S. aureus ATCC 29213) | SP 49051 [2] | Effect on MSSP 71990 [2] | Effect on MSSP 72036 [2] | Effect on MSSP 72191 [2] | Effect on MSSP 76986 [2] | Effect on MSSP 77378 [2] | Effect on MSSP 78032 [2] | Effect on MSSP 81923 [2] | Effect on MSSP 84250 [2] | Effect on MSSP 84658 [2] | Effect on MSSP 86000 [2] | Effect on MSSP 86001 [2] | EC 25922 (E. coli ATCC 25922) [µM] | MR 71994 [3] | MR 72035 [3] | MR 72192 [3] | MR 76923 [3] | other results |
| --- | --- | --- | --- | --- | --- | --- | --- | --- | --- | --- | --- | --- | --- | --- | --- | --- | --- | --- | --- | --- | --- |
| 28 (PKWCFRVCYRGICYRRCR; Artificial Antimicrobial peptide) [compound 28] | 94.4 | 19.4 | 6.2 | 1.6 | 1.6 | 1.6 | 1.6 | 0.8 | 1.6 | 1.6 | 1.6 | 1.6 | 1.6 | 1.6 | 1.6 | 0.8 | 1.6 | 3.1 | 3.1 | 1.6 | MR 79882 [3]: 0.8; MR 80279 [3]: 1.6; MR 81926 [3]: 1.6; MR 86002 [3]: 1.6; MR 87665 [3]: 1.6; Mr 88493 [3]: 1.6 |
| 29 (PKWCFRVCYRGICYRRCRD; Artificial Antimicrobial peptide) [compound 29] | 68.2 | 17.5 | 3.1 | 1.6 | 1.6 | 1.6 | 1.6 | 1.6 | 0.8 | 0.8 | 0.8 | 0.8 | 1.6 | 1.6 | 1.6 | 1.6 | 1.6 | 1.6 | 0.8 | 1.6 | MR 79882 [3]: 0.8; MR 80279 [3]: 0.8; MR 81926 [3]: 0.8; MR 86002 [3]: 1.6; MR 87665 [3]: 1.6; Mr 88493 [3]: 1.6 |
| 30 (PWCFRVCYRGICYRRCR; Artificial Antimicrobial peptide) [compound 30] | 63.5 | 17.0 | 3.1 | 1.6 | 0.8 | 0.8 | 1.6 | 0.8 | 0.8 | 0.8 | 0.8 | 0.8 | 1.6 | 1.6 | 1.6 | 1.6 | 1.6 | 0.8 | 0.8 | 0.8 | MR 79882 [3]: 0.8; MR 80279 [3]: 0.8; MR 81926 [3]: 1.6; MR 86002 [3]: 1.6; MR 87665 [3]: 1.6; Mr 88493 [3]: 1.6 |
| 31 (PWCFRVCYRGICYRRCRD; Artificial Antimicrobial peptide) [compound 31] | 43.5 | 11.0 | 3.1 | 1.6 | 1.6 | 1.6 | 1.6 | 1.6 | 1.6 | 1.6 | 1.6 | 1.6 | 1.6 | 1.6 | 1.6 | 1.6 | 1.6 | 1.6 | 1.6 | 1.6 | MR 79882 [3]: 1.6; MR 80279 [3]: 1.6; MR 81926 [3]: 1.6; MR 86002 [3]: 1.6; MR 87665 [3]: 1.6; Mr 88493 [3]: 1.6 |
| 97 (KRCFRVCYRGICYRRCRD; Artificial Antimicrobial peptide) [compound 97] | 31.2 | 12.9 | 6.2 | 3.1 | 3.1 | 3.1 | 3.1 | 1.6 | 1.6 | 3.1 | 3.1 | 3.1 | 3.1 | 1.6 | 1.6 | 3.1 | 1.6 | 3.1 | 3.1 | 1.6 | MR 79882 [3]: 1.6; MR 80279 [3]: 3.1; MR 81926 [3]: 1.6; MR 86002 [3]: 3.1; MR 87665 [3]: 3.1; Mr 88493 [3]: 3.1 |
| 98 (KWCVRVCYRGICYRRCRD; Artificial Antimicrobial peptide) [compound 98] | 35.0 | 9.3 | 3.1 | 1.6 | 1.6 | 1.6 | 1.6 | 1.6 | 1.6 | 1.6 | 1.6 | 1.6 | 1.6 | 1.6 | 1.6 | 1.6 | 1.6 | 3.1 | 1.6 | 1.6 | MR 79882 [3]: 0.8; MR 80279 [3]: 1.6; MR 81926 [3]: 1.6; MR 86002 [3]: 1.6; MR 87665 [3]: 1.6; Mr 88493 [3]: 1.6 |
